The nature of series [1]: Half-life for the disappearance in rat brain homogenate. The class given is ADME.
The species entered for series [2] is Rattus norvegicus. Description: In vitro rate constant, correlation coefficient for the disappearance in rat liver homogenate. The format is ADME.
Series [3] is filed under the species Rattus norvegicus. Description: In vitro rate constant, correlation coefficient for the disappearance in rat brain homogenate. The format is ADME.
Series [4] is filed under the species Homo sapiens. Nature of the series: Half-life for the disappearance in whole human blood; Stable. The format is ADME, organism-based. The following applies: in vitro.
For series [5], the species on record is Homo sapiens. Nature of the series: In vitro rate constant, correlation coefficient for the disappearance in whole human blood; Stable.
Series [6] is described as follows: Half-life for the disappearance in rat liver homogenate. The format is ADME.
The species entered for series [7] is Rattus norvegicus. Nature of the series: In vitro rate constant, correlation coefficient for the conversion to progesterone in rat liver homogenate. The format is ADME.
Series [8] is filed under the species Rattus norvegicus. Nature of the series: In vitro rate constant, correlation coefficient for the conversion to progesterone in whole rat blood. The class given is ADME, organism-based.

The source of these data is ChEMBL document CHEMBL1124856, “Extension of a redox-based chemical delivery system to alpha, beta-unsaturated ketones” (J Med Chem, 1990).

“And” between values parts separate entries of the source, which are not always exact repeats. Equal entries are not always repeated.

Turning to `CC(=O)C1CCC2C3CC=C4C=C(OC(=O)C5=CN(C)C=CC5)CCC4(C)C3CCC12C` (stereo not drawn), the half-life in series [1] is 1.77 h; in series [6] it was 0.267 h. The Correlation coefficient in series [2] is recorded as 0.999; in series [3], 0.98. Further, the T1/2 entry in series [4] and in series [5] was “Stable” in each case.
In the case of `CC(=O)C1CCC2C3CC=C4C=C(OC(=O)c5ccc[n+](C)c5)CCC4(C)C3CCC12C.[I-]` (stereo not drawn), the Correlation coefficient was 0.996 and 0.994 in series [7]; 0.998 in series [8].
